US20130108717A1, “COMPOSITIONS FOR THE TREATMENT OF GYNAECOLOGICAL DISORDERS” (INDENA S.P.A., priority 2010, published 2013)
Values after ≈ are worked out from the molar mass of the structure shown.

Experiments:
Assay type in all cases: cell-based
[1] = system: Methicillin-resistant Staphylococcus aureus; assay: MIC, micro-dilution in culture broth (CLSI M 7-A5), vaginally isolated strains
Gardnerella vaginalis = assay: MIC, broth dilution (CLSI M11-A4), vaginally isolated strains
Candida albicans = assay: MIC, microdilution in broth (CLSI M27-A), vaginally isolated strains
Trichomonas vaginalis = assay: MIC on Diamond's medium, loss of motility, vaginally isolated strains

SMILES: CC1(C)[C@@H](O)CC[C@]2(C)[C@H]3C(=O)C=C4[C@@H]5C[C@@](C)(C(=O)O)CC[C@]5(C)CC[C@@]4(C)[C@]3(C)CC[C@@H]12 [18-beta-glycyrrhetic acid, 18β-glycyrrhetic acid]
- MIC ([1]; S. aureus Met R 1): >1333 µg/mL
- MIC ([1]; S. aureus Met R 2): >1333 µg/mL
- MIC ([1]; S. aureus Met R 3): 1333 µg/mL (≈ 2830 µM)
- MIC ([1]; S. aureus Met R 4): 1333 µg/mL (≈ 2830 µM)
- MIC ([1]; S. aureus Met R 5): >1333 µg/mL
- MIC (Gardnerella vaginalis; Gardnerella vaginalis 1): 667 µg/mL (≈ 1420 µM)
- MIC (Gardnerella vaginalis; Gardnerella vaginalis 2): 667 µg/mL (≈ 1420 µM)
- MIC (Gardnerella vaginalis; Gardnerella vaginalis 3): 333 µg/mL (≈ 707 µM)
- MIC (Gardnerella vaginalis; Gardnerella vaginalis 4): 167 µg/mL (≈ 355 µM)
- MIC (Gardnerella vaginalis; Gardnerella vaginalis 5): 667 µg/mL (≈ 1420 µM)
- MIC (Gardnerella vaginalis; Gardnerella vaginalis 6): 667 µg/mL (≈ 1420 µM)
- MIC (Gardnerella vaginalis; Gardnerella vaginalis 7): 167 µg/mL (≈ 355 µM)
- MIC (Gardnerella vaginalis; Gardnerella vaginalis 8): 333 µg/mL (≈ 707 µM)
- MIC (Gardnerella vaginalis; Gardnerella vaginalis 9): 333 µg/mL (≈ 707 µM)
- MIC (Gardnerella vaginalis; Gardnerella vaginalis 10): 167 µg/mL (≈ 355 µM)
- MIC (Candida albicans; Candida albicans 1): 667 µg/mL (≈ 1420 µM)
- MIC (Candida albicans; Candida albicans 2): 667 µg/mL (≈ 1420 µM)
- MIC (Candida albicans; Candida albicans 3): 667 µg/mL (≈ 1420 µM)
- MIC (Candida albicans; Candida albicans 4): 667 µg/mL (≈ 1420 µM)
- MIC (Candida albicans; Candida albicans 5): 333 µg/mL (≈ 707 µM)
- MIC (Trichomonas vaginalis; Trichomonas vaginalis 1): 150 µg/mL (≈ 319 µM)
- MIC (Trichomonas vaginalis; Trichomonas vaginalis 2): 150 µg/mL (≈ 319 µM)
- MIC (Trichomonas vaginalis; Trichomonas vaginalis 3): 150 µg/mL (≈ 319 µM)
- MIC (Trichomonas vaginalis; Trichomonas vaginalis 4): 150 µg/mL (≈ 319 µM)
